Legend:
[1] = tested on: rat myocardial infarction model (left anterior descending (LAD) artery ligation); experiment: Rat myocardial infarction model (LAD artery ligation), echocardiographic function of the remote myocardium; type: in vivo
Source text: Although believed to be applicable to several different precipitating causes of CHF, the present inventor initially chose a myocardial infarction model because it would allow the effects of the infarct on the normal remaining myocardium to be studied without confounding factors, particularly the presence of disease in the tissues studied.
An important consequence of an MI is that the uninvolved, often normal, remote myocardium (RM) must assume the entire workload of the ventricle. […] The subcellular events which control and set in motion, the progression to CHF were heretofore unknown. The present inventor hypothesized that the progression begins when the remaining normal myocardium (RM) must assume the entire cardiac load, in effect a large increase for the RM, producing an unfavorable myocardial energy supply/demand ratio which leads to depressed myocardial energy levels. Moreover, because of the continuous nature of the stress imposed, there is essentially no opportunity to recover. As a result, the continued breakdown of AMP with further erosion of ATP levels occurs. Studies to understand this progression in a myocardial infarction (MI) model were undertaken. The hypothesis that a fall in RM energy levels, including myocardial ATP, leads to decreased function was tested by infusing ribose in a rat MI model. A rat myocardial infarction model involving (left anterior descending (LAD) artery ligation) was utilized. In this model the RM must produce the entire cardiac output and left ventricular (LV) dysfunction develops as depicted in FIG. 2 and in the results depicted in FIGS. 3-6.
Methods: Male Lewis rats (250-300 g, n=12) were evaluated by initial baseline 2D guided M-mode echocardiographic analysis using an HP SONOS 1550 system. The echocardiography included short axis views and EF by cubed formula, analyzing the variables of LVdd, LVsd, RM wall thickness, EF and SF. […] Animals underwent ligation of the left anterior descending coronary artery by to produce an anterior wall MI at 1-2 days after pump placement and received continuous venous infusion of 0.9% NaCl solution (at 30 μl/kg/hr) with or without 2.5% D-ribose (N=6 for each group) via the implanted osmotic mini-pump for 14 days. Echocardiographic analysis was performed 2 and 4 weeks post-MI to assess changes in function by ejection indices (ventricular contractility, ejection and shortening fractions), chamber dimensions, and wall thickness. FIG. 3 depicts the M-mode echocardiographic appearance of a rat heart in which post MI CHF has developed.

[2] = tested on: patients with chronic coronary artery disease and CHF; conditions: 3 weeks of oral D-ribose, 15 patients with existing CHF, cited from earlier work
myocardial ATP levels [3] = conditions: cited from earlier work
myocardial ATP levels [4] = conditions: rats given a toxic dose of isoproterenol and constriction of the abdominal aorta; cited from earlier work
rodent MI model = conditions: continuous i.v. ribose from before ligation for up to 48 hours, cited from earlier work
[5] = 2 wks post MI, 2.5% D-ribose continuous venous infusion for 14 days
[6] = 4 wks post MI, 2.5% D-ribose continuous venous infusion for 14 days
[7] = Pre-MI (baseline), ribose group
[8] = ribose infusion for 14 days after MI

O=C[C@H](O)[C@H](O)[C@H](O)CO [Ribose, D-ribose]
Ejection fraction (EF) [1, 5]: 50.5 ± 5.9 % | LV diastolic diameter [1, 5]: 0.72 ± 0.08 cm | LV systolic diameter [1, 5]: 0.47 ± 0.22 cm | Posterior wall diastolic thickness [1, 5]: 0.18 ± 0.12 cm | Shortening fraction (SF) [1, 5]: 19.8 ± 4.4% | Ejection fraction (EF) [1, 6]: 49.1 ± 9.4 % | LV diastolic diameter [1, 6]: 0.76 ± 0.07 cm | LV systolic diameter [1, 6]: 0.64 ± 0.09 cm | Posterior wall diastolic thickness [1, 6]: 0.13 ± 0.03 cm | Septal diastolic thickness [1, 6]: 0.12 ± 0.02 cm | Shortening fraction (SF) [1, 6]: 19.9 ± 6.1 % | Ejection fraction (EF) [1, 7]: 76.4 ± 5.9% | LV systolic diameter [1, 7]: 0.39 ± 0.06 cm | Posterior wall diastolic thickness [1, 7]: 0.13 ± 0.02 cm | Septal diastolic thickness [1, 7]: 0.13 ± 0.02 cm | Shortening fraction (SF) [1, 7]: 38.6 ± 5.3% | LV diastolic diameter ([1]; Pre-MI (baseline), ribose group, 2.5% D-ribose continuous venous infusion 30 μl/kg/hr for 14 days): 0.64 ± 0.04 cm | contractility (EF, SF) compared to the untreated animals [1, 8]: better preserved | ventricular dilation [1, 8]: significantly reduced | wall thickness compared to the untreated animals [1, 8]: increased | quality of life by questionnaire ([2]; P< or =0.01): 467±128 | E wave deceleration ([2]; P=0.002): 196±42 | left atrial dimension ([2]; P=0.02): 47 ± 18 mL | speeding of ATP recovery (myocardial ATP levels [3]; acute stress models of recovery (i.e. global ischemia), ribose bypasses the G6PDH step): at least 10 fold | return of myocardial ATP levels and function (myocardial ATP levels [3]; global ischemia and reperfusion model, ribose infusion): greatly enhance return | ATP levels (myocardial ATP levels [4]): maintained for 24 hours | post-MI rise in LV end-diastolic pressure (rodent MI model): reduced | fall of ATP in the nonischemic myocardium (rodent MI model; first (24 hr) time point): reduce the fall of ATP
